Experimental data taken from patent US20110040086A1, “Novel Beta-Lactam Antibiotics, Methods for Their Production, and Their Use” (DRITTE PATENTPORTFOLIO BETEILIGUNGSGESELLSCHAFT MB, priority 2007, published 2011).

Columns and labels:
E. faecalis 945 = experiment: agar diffusion test (Test System II, multi-resistant germs); format: cell-based, Enterococcus faecalis; set-up: key: r = resistant (no detectable zone of inhibition)
Outline: (§1)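 Each plate of Müller-Hinton agar II, inoculated with a saline suspension at McFarland 0.5, carried three discs loaded with 10, 50 and 100 μg of substance. Incubation was 18-20 h at 37 °C, with inhibition zones then measured.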

[1] = tested on: Escherichia coli SBUG 1135; experiment: agar diffusion test (Test System 1, antimicrobial effect); format: cell-based; set-up: key: r = resistant (no detectable zone of inhibition)
Outline: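 Disc diffusion: compound at 10 μg, 50 μg, 100 μg on sensi-discs, three per plate of nutrient agar seeded with ~10^6 E. coli SBUG 1135 (overnight culture, 17 h, 37° C, diluted 1:100). After 20 h incubation at 37° C, zone diameter recorded in mm.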

B. subtilis AWD 166 = experiment: agar diffusion test (antimicrobial effect); format: cell-based, Bacillus subtilis
Outline: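 Inhibition zone diameters (mm) read after 20 h incubation at 37 °C. Discs carried 10 μg, 50 μg or 100 μg of test substance, dissolved in methanol or distilled water, on agar inoculated with B. subtilis AWD 166 for dense but separate colonies.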

S. aureus 38418 = experiment: agar diffusion test (Test System II, multi-resistant germs); format: cell-based, Staphylococcus aureus
Outline: as §1

S. aureus ATCC 6538 = experiment: as above; format: cell-based, Staphylococcus aureus
Outline: as §1

S. aureus 526 = experiment: as above; format: cell-based, Staphylococcus aureus; set-up: key: r = resistant (no detectable zone of inhibition)
Outline: as §1

S. aureus 520 = experiment: as above; format: cell-based, Staphylococcus aureus; set-up: key: r = resistant (no detectable zone of inhibition)
Outline: as §1

S. aureus 36881 = experiment: as above; format: cell-based, Staphylococcus aureus; set-up: key: r = resistant (no detectable zone of inhibition)
Outline: as §1

S. aureus 34289 = experiment: as above; format: cell-based, Staphylococcus aureus; set-up: key: r = resistant (no detectable zone of inhibition)
Outline: as §1

[2] = tested on: S. aureus North Germany strain; experiment: as above; format: cell-based, Staphylococcus aureus; set-up: key: r = resistant (no detectable zone of inhibition)
Outline: as §1

S. aureus 39105 = experiment: as above; format: cell-based, Staphylococcus aureus; set-up: key: r = resistant (no detectable zone of inhibition)
Outline: as §1

S. aureus 33490 = experiment: as above; format: cell-based, Staphylococcus aureus; set-up: key: r = resistant (no detectable zone of inhibition)
Outline: as §1

[3] = tested on: Staphylococcus aureus ATCC 6538; experiment: mouse infected with Staphylococcus aureus infection model (survival); format: in vivo, BALB/c mice; settings: 2 × 0.5 mg (25 mg/kg) i.p.
Outline: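 Survival model: S. aureus grown to extinction 0.6 at 550 nm and injected i.p. (10 μl/g body weight) into cyclophosphamide-pretreated BALB/c mice (250 then 100 mg/kg i.p.), ≥3 animals per arm. Test antibiotic dosed i.p. at 30 min and again later at the same concentration, vehicle PBS/3% DMSO.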

[4] = tested on: Enterococcus faecalis 769; experiment: agar diffusion test (Test System II, multi-resistant germs); format: cell-based; set-up: key: r = resistant (no detectable zone of inhibition)
Outline: as §1

CC1=C(C(=O)O)N2C(=O)C(NC(=O)C(NC3=C(C(N)=O)C(=O)C=CC3=O)c3ccccc3)C2SC1 (stereo not shown) [1f, 7-[2-(2-carbamoyl-3,6-dioxocyclohexa-1,4-dienylamino)-2-phenyl-acetylamino]-desacetoxycephalosporanic acid]
Diameter of zone of inhibition (E. faecalis 945; Quantity n 0.02): r | Diameter of zone of inhibition (E. faecalis 945; Quantity n 0.1): r | Diameter of zone of inhibition (E. faecalis 945; Quantity n 0.2): r | Diameter of zone of inhibition ([1]; Quantity n 0.02): r | Diameter of zone of inhibition ([1]; Quantity n 0.1): 14 mm | Diameter of zone of inhibition ([1]; Quantity n 0.2): 18 mm | Diameter of zone of inhibition (B. subtilis AWD 166; Quantity n 0.02): 24 mm | Diameter of zone of inhibition (B. subtilis AWD 166; Quantity n 0.1): 30 mm | Diameter of zone of inhibition (B. subtilis AWD 166; Quantity n 0.2): 32 mm | Diameter of zone of inhibition (S. aureus 38418; Quantity n [mol] 0.02): 14 mm | Diameter of zone of inhibition (S. aureus 38418; Quantity n [mol] 0.1): 24 mm | Diameter of zone of inhibition (S. aureus 38418; Quantity n [mol] 0.2): 30 mm | Diameter of zone of inhibition (S. aureus ATCC 6538; Quantity n 0.02): 20 mm | Diameter of zone of inhibition (S. aureus ATCC 6538; Quantity n 0.1): 30 mm | Diameter of zone of inhibition (S. aureus ATCC 6538; Quantity n 0.2): 34 mm | Diameter of zone of inhibition (S. aureus 526; Quantity n 0.02): r | Diameter of zone of inhibition (S. aureus 526; Quantity n 0.1): r | Diameter of zone of inhibition (S. aureus 526; Quantity n 0.2): r | Diameter of zone of inhibition (S. aureus 520; Quantity n [mol] 0.02): r | Diameter of zone of inhibition (S. aureus 520; Quantity n [mol] 0.1): r | Diameter of zone of inhibition (S. aureus 520; Quantity n [mol] 0.2): r | Diameter of zone of inhibition (S. aureus 36881; Quantity n 0.02): r | Diameter of zone of inhibition (S. aureus 36881; Quantity n 0.1): r | Diameter of zone of inhibition (S. aureus 36881; Quantity n 0.2): 14 mm | Diameter of zone of inhibition (S. aureus 34289; Quantity n [mol] 0.02): r | Diameter of zone of inhibition (S. aureus 34289; Quantity n [mol] 0.1): r | Diameter of zone of inhibition (S. aureus 34289; Quantity n [mol] 0.2): r | Diameter of zone of inhibition ([2]; Quantity n 0.02): r | Diameter of zone of inhibition ([2]; Quantity n 0.1): r | Diameter of zone of inhibition ([2]; Quantity n 0.2): 10 mm | Diameter of zone of inhibition (S. aureus 39105; Quantity n 0.02): r | Diameter of zone of inhibition (S. aureus 39105; Quantity n 0.1): r | Diameter of zone of inhibition (S. aureus 39105; Quantity n 0.2): 12 mm | Diameter of zone of inhibition (S. aureus 33490; Quantity n [μmol] 0.02): r | Diameter of zone of inhibition (S. aureus 33490; Quantity n [μmol] 0.1): 14 mm | Diameter of zone of inhibition (S. aureus 33490; Quantity n [μmol] 0.2): 16 mm | Survival/tested mice n/n [3]: 3/3 | Diameter of zone of inhibition ([4]; Quantity n 0.02): r | Diameter of zone of inhibition ([4]; Quantity n 0.1): r | Diameter of zone of inhibition ([4]; Quantity n 0.2): r
